From patent US20220213126A1, “SMALL MOLECULE AUTOPHAGY INDUCERS FOR THE TREATMENT OF CANCER AND NEURODEGENERATIVE DISEASES” (John Wayne Cancer Institute, priority 2019, published 2022)
“And” between values parts separate entries of the source, which are not always exact repeats. Equal values may be shown once. Read-outs that look alike come from different tables or passages of the source.

Tests used:
[1] = Pharmacokinetics of BC-4 and BC-5 in mouse plasma and brain; type: in vivo; settings: Balb/c mice, single oral dose 5 mg/kg; for Cmax: read-out: Cmax; for Tmax: read-out: Tmax (converted); for half-life: read-out: T½
Description: Pharmacokinetics of BC-4 and BC-5 were compared to BC-1. Pharmacokinetics were assessed in Balb/c mice administered a single oral dose of 5 mg/kg of the indicated compound (Tables 11 and 12).

ULK1 = assay: Western blot of autophagy proteins in MDA-MB-231 cells; type: cell-based; settings: 10 μM, MDA-MB-231, different time points
Description: FIG. 6 is a Western blot of autophagy proteins in TNBC cells treated with vehicle (control), VMY-BC-1, or Rapamycin. Western blot is shown for p-ULK1, LC3 A/B, and cleaved PARP.
(§1) To identify the functional target of VMY-BC-1, preliminary cell viability assays were carried out using siRNA to knock down each of the 10 identified binding proteins. […] Considering that that low ULK1 expression is associated with TNBC disease progression (Tang et al., Breast Cancer Res. Treat. 134:549-560, 2012) and autophagy controls the level of various DNA repair and checkpoint proteins in the DNA damage response pathway (Czarny et al., Int. J. Mol. Sci. 16:2641-2662, 2015; Gomes et al., Int. J. Mol. Sci. 18:2351, 2017), ULK1 activity in response to VMY-BC-1 was investigated. Protein extracts were made from MDA-MB-231 cells treated with vehicle control, VMY-BC-1 (10 μM), and Rapamycin (200 nM) at different time points.

U87 MG tumor xenografts = assay: U87 GBM tumor xenograft efficacy; type: in vivo, SCID mice
Description: To evaluate the anti-tumor efficacy of VMY-BC-1 in vivo, GBM tumor xenografts were established in the flanks of SCID mice. 5×10^6 U87 MG (ATCC HTB-14™) cells in 1×HBSS with 1:1 Matrigel® were implanted subcutaneously in the flank of 5-6 week old female SCID mice (C.B-lgh-1b/GbmsTac-Prkdc^scid-Lyst^bg N7; Taconic Biosciences, India). Mice (n=8) were treated with vehicle (2% (v/v) Tween® 80+98% (v/v) of 0.5% (w/v) hydroxypropyl methylcellulose (HPMC) in water) or VMY-BC-1 75 mg/kg PO daily for 14 days. The dose volume was 10 mL/kg. Tumor volume, tumor growth inhibition (TGI), body weight, and clinical signs were monitored as described in Example 5.

ATM and ULK1 = assay: Cell viability assays with siRNA knock down of binding proteins; type: cell-based; settings: preliminary
Description: as §1

MDA-MB-231 TNBC cells = assay: Growth of MDA-MB-231 TNBC cells; type: cell-based; settings: 1%, 5% or 10% serum
Description: FIGS. 2A and 2B are graphs showing the effect of VMY-BC-1 on TNBC cells. […] The percentage of cells crossing the chamber is presented as the mean±SEM. *P<0.05.
Effect of VMY-BC-1 on Triple Negative Breast Cancer Cell Lines A trans-stilbene boronic acid analog, VMY-BC-1, was tested against a TNBC cell line.

NHA = assay: Normal cell viability, Alamar blue, 72 hours; type: cell-based; settings: normal cell line
Description: (§2) The effect of VMY-BC-1 was tested on a panel of GBM cell lines. […] In this study 100 μM was the highest drug concentration used, with 3-fold dilution for a 10 dose response curve.

[2] = Normal cell viability, Alamar blue, 72 hours; type: cell-based; settings: MRCS, normal cell line
Description: as §2

CYP2C19 = molecular target: T1, CYP2C19 (Homo sapiens, UniProt P33261); assay: CYP inhibition in pooled human liver microsomes; type: in vitro ADME
T1 construct: from tissue; host or cells: pooled human liver microsomes

Caco-2 permeability = type: in vitro ADME; settings: human, Caco-2
Caco-2 cell model = assay: Caco-2 permeability; type: in vitro ADME
LogD octanol-water = type: physicochemical; settings: pH 7.4, read-out: LogD (octanol-water partition coefficient), pH 7.4
Description: Moreover, PK studies of RSV in humans conclude that even high concentration of RSV might be insufficient to achieve in vivo concentrations required for the systemic prevention of cancer. Therefore, in vitro ADME assays were carried out to assess VMY-BC-1 and to identify properties for further optimization.

[3] = Mouse plasma protein binding (in vitro binding study); type: in vitro ADME, CD1 mouse
Description: Free drug fraction in brain and plasma compartment was determined in vitro (Table 7). Brain to plasma (B/P) ratio was also determined in vivo (Table 8).

CYP2D6 = molecular target: T2, CYP2D6 (Homo sapiens, UniProt P10635); assay: CYP inhibition in pooled human liver microsomes; type: in vitro ADME
T2 construct: from tissue; host or cells: pooled human liver microsomes

CYP1A2 = molecular target: T3, CYP1A2 (Homo sapiens, UniProt P05177); assay: CYP inhibition in pooled human liver microsomes; type: in vitro ADME
T3 construct: from tissue; host or cells: pooled human liver microsomes

[4] = mouse, brain, read-out: Brain level, Mean (4) ± SE
[5] = mouse, plasma, read-out: Plasma level, Mean (4) ± SE

T3 sequence (P05177 whole entry): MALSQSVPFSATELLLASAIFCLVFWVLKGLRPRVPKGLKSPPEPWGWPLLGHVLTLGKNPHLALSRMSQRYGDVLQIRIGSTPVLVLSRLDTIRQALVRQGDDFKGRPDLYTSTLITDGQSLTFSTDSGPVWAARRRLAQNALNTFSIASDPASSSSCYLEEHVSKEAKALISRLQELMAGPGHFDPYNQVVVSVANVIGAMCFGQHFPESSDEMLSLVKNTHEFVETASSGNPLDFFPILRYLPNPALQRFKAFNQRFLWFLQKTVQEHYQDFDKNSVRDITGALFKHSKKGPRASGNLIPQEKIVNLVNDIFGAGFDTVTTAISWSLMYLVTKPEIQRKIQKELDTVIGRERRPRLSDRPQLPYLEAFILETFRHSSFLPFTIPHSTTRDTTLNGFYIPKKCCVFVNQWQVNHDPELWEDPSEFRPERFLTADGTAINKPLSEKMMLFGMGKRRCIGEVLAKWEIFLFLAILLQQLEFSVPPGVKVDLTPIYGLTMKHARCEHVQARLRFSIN
T1 sequence (P33261 whole entry): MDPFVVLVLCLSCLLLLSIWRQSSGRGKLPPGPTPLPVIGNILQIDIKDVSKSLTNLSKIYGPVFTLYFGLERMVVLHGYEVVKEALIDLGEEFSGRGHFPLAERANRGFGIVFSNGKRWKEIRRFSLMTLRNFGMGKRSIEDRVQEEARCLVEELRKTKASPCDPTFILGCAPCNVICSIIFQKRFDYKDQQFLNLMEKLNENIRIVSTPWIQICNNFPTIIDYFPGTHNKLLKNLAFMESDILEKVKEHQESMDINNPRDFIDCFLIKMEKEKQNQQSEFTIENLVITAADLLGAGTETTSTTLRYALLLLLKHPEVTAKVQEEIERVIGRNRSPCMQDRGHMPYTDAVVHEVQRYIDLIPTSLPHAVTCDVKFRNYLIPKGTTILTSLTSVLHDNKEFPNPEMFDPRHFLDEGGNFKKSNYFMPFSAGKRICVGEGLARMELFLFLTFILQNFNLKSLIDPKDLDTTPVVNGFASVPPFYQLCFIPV
T2 sequence (P10635 whole entry): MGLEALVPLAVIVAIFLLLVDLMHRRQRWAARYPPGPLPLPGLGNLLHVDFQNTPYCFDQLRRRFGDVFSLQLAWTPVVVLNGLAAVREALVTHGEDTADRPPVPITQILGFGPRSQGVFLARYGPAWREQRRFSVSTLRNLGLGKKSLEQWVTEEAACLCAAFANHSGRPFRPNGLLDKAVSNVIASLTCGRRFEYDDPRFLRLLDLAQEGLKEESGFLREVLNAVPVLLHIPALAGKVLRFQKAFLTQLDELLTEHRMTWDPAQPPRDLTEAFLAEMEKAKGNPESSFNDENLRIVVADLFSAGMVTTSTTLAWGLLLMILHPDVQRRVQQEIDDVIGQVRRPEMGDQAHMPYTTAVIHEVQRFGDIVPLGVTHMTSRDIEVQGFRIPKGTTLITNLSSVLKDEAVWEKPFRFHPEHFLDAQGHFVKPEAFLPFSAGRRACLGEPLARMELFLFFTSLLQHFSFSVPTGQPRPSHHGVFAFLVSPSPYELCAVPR

SMILES: COc1ccc(/C=C/c2cc(OC)cc(B(O)O)c2)cc1 [VMY-BC-1]
- Brain level, Mean (4) ± SE ([1]; 0 min): BQL
- Plasma level, Mean (4) ± SE ([1]; 0 min): BQL
- Brain level, Mean (4) ± SE ([1]; 360 min): BQL
- Plasma level, Mean (4) ± SE ([1]; 360 min): BQL
- Brain level, Mean (4) ± SE ([1]; 900 min): BQL
- Plasma level, Mean (4) ± SE ([1]; 900 min): BQL
- Brain level, Mean (4) ± SE ([1]; 1440 min): BQL
- Plasma level, Mean (4) ± SE ([1]; 1440 min): BQL
- terminal elimination rate constant (lambda z) ([1]; Brain): 0.0156 min⁻¹
- terminal elimination rate constant (lambda z) ([1]; Plasma): 0.0157 min⁻¹
- concentration at 30 min [1, 4]: 1560 ± 237 ng/g
- concentration at 60 min [1, 4]: 1400 ± 211 ng/g
- concentration at 180 min [1, 4]: 169 ± 58 ng/g
- concentration at 30 min [1, 5]: 578 ± 55 ng/mL
- concentration at 60 min [1, 5]: 470 ± 61 ng/mL
- concentration at 180 min [1, 5]: 60 ± 48 ng/mL
- Cmax ([1]; mouse, Brain): 1560 ng/g
- Tmax ([1]; mouse, Brain): 30 min
- half-life ([1]; mouse, Brain): 44.3 min
- AUC(0-inf) ([1]; mouse, Plasma): 865 ng·h/mL
- AUC(0-t) ([1]; mouse, Plasma, read-out: AUC(0-t) (converted)): 803 ng·h/mL
- Cmax ([1]; mouse, Plasma): 578 ng/mL
- Tmax ([1]; mouse, Plasma): 30 min
- half-life ([1]; mouse, Plasma): 44 min
- Autophagy proteins and phosphorylation of ULK1 and LC3 A/B (Western blot) (ULK1): increasing amounts of autophagy proteins over time as well as increased phosphorylation of ULK1 and LC3 A/B
- Treatment-related adverse effects (body weight and clinical signs) (U87 MG tumor xenografts; 75 mg/kg once daily oral, 14 days): No treatment-related adverse effects were observed
- Tumor growth inhibition (U87 MG tumor xenografts; 75 mg/kg once daily oral, end of 2 weeks): 32%
- Drug levels in tumor vs plasma (U87 MG tumor xenografts; U87 xenograft mice, 75 mg/kg): higher VMY-BC-1 drug levels in tumor than in plasma
- Apoptosis by TUNEL staining (U87 MG tumor xenografts; tumor tissue, 75 mg/kg): significant increase in apoptosis
- Reduction in Ki67 proliferation marker vs control (U87 MG tumor xenografts; tumor tissue, 75 mg/kg): 51%
- Effect of knock down of ATM and ULK1 on functional activity (ATM and ULK1): abrogated the functional activity
- Growth of MDA-MB-231 TNBC cells (MDA-MB-231 TNBC cells): significantly inhibited growth
- IC50 (NHA): 26.5 µM
- IC50 [2]: 35.3 µM
- IC50 (CYP2C19): 95.7 µM
- efflux ratio (Caco-2 permeability): 0.4
- Papp A→B (Caco-2 permeability; A-B): 51 ×10⁻⁶ cm/s
- Papp B→A (Caco-2 permeability; B-A): 20 ×10⁻⁶ cm/s
- Permeability in Caco-2 cell model (Caco-2 cell model): high permeability
- logD (LogD octanol-water): 3.37
- recovery ([3]; CD1, mouse, mouse plasma): 89.3%
- fraction unbound ([3]; CD1, mouse, plasma, Table 3): 0.265
- Plasma protein binding ([3]; CD1 mouse plasma): moderate plasma protein binding
- Bound (%) ([3]; Mouse Plasma): 73.48%
- fu (%) ([3]; Mouse Plasma): 26.52%
- IC50 (CYP2D6): > 100 µM
- IC50 (CYP1A2): 5 µM and 4.7 µM
